Results reported in PMC5748531, “Antimycobacterial Activities of N-Substituted-Glycinyl 1H-1,2,3-Triazolyl Oxazolidinones and Analytical Method Development and Validation for a Representative Compound” (Scientia Pharmaceutica, 2017).
Converted amounts (≈) assume the structure as drawn.

Key:
Test in all cases: microbe, parasite or virus in culture
Assay type in all cases: cell-based, Mycobacterium tuberculosis
[1] = test system: isoniazid (INH)-resistant Mtb (SRI 1369); settings: for MIC: Mycobacterium tuberculosis, 168 h, read-out: MIC INH-R, broth microdilution, 7 days at 37 °C
[2] = test system: rifampin (RMP)-resistant Mtb (SRI 1367); settings: for MIC: Mycobacterium tuberculosis, 168 h, read-out: MIC RMP-R, broth microdilution, 7 days at 37 °C
[3] = test system: ofloxacin (OFX)-resistant Mtb (SRI 4000); settings: for MIC: Mycobacterium tuberculosis, 168 h, read-out: MIC OFX-R, broth microdilution, 7 days at 37 °C; for MIC OFX-R: broth microdilution, 7 days at 37 °C
[4] = broth microdilution, 7 days at 37 °C

| Compound | MIC [1] | MIC [2] | MIC [3] | MIC INH-R [1, 4] | MIC OFX-R [3] | MIC RMP-R [2, 4] |
| --- | --- | --- | --- | --- | --- | --- |
| Cc1cn(CC2CN(c3ccc(N4CCN(C(=O)CNC(=O)c5cc([N+](=O)[O-])cc([N+](=O)[O-])c5)CC4)c(F)c3)C(=O)O2)nn1 (stereo not drawn) [PH-181] | 0.85 to 1.64 µM (≈ 0.52 to 1 µg/mL) | 0.82 µM (≈ 0.501 µg/mL) | 0.82 µM (≈ 0.501 µg/mL) |  |  |  |
| CCOC(=O)CC(=O)NCC(=O)N1CCN(c2ccc(N3CC(Cn4cc(C)nn4)OC3=O)cc2F)CC1 (stereo not drawn) [PH-150] | 2.9 µM (≈ 1.54 µg/mL) | 2.9 µM (≈ 1.54 µg/mL) | 2.9 µM (≈ 1.54 µg/mL) |  |  |  |
| O=C(NCC(=O)N1CCN(c2ccc(N3CC(Cn4ccnn4)OC3=O)cc2F)CC1)c1cccnc1 (stereo not drawn) [PH-195] | 2 µM (≈ 1.02 µg/mL) | 0.98 µM (≈ 0.498 µg/mL) | 0.49 µM (≈ 0.249 µg/mL) |  |  |  |
| CO[C@H]1/C=C/O[C@@]2(C)Oc3c(C)c(O)c4c(O)c(c(/C=N/N5CCN(C)CC5)c(O)c4c3C2=O)NC(=O)/C(C)=C\C=C\[C@H](C)[C@H](O)[C@@H](C)[C@@H](O)[C@@H](C)[C@H](OC(C)=O)[C@@H]1C [RMP, Rifampicin, reference compound] | 0.06 µM (≈ 0.0494 µg/mL) |  | 0.95 µM (≈ 0.782 µg/mL) |  |  |  |
| Cc1cn(CC2CN(c3ccc(N4CCN(C(=O)CN)CC4)c(F)c3)C(=O)O2)nn1 (stereo not drawn) [PH-151] | 11.6 µM (≈ 4.84 µg/mL) | 5.8 µM (≈ 2.42 µg/mL) | 11.6 µM (≈ 4.84 µg/mL) |  |  |  |
| CC(=O)NCC(=O)N1CCN(c2ccc(N3CC(Cn4ccnn4)OC3=O)cc2F)CC1 (stereo not drawn) [PH-165] | 4.5 µM (≈ 2 µg/mL) | 6.7 µM (≈ 2.98 µg/mL) | 3.4 µM (≈ 1.51 µg/mL) |  |  |  |
| Cc1cn(CC2CN(c3ccc(N4CCN(C(=O)CNC(=O)C(Cl)Cl)CC4)c(F)c3)C(=O)O2)nn1 (stereo not drawn) [PH-182] | 0.95 µM (≈ 0.502 µg/mL) | 0.95 µM (≈ 0.502 µg/mL) | 0.47 µM (≈ 0.248 µg/mL) |  |  |  |
| O=C(NCC(=O)N1CCN(c2ccc(N3CC(Cn4ccnn4)OC3=O)cc2F)CC1)c1ccc([N+](=O)[O-])o1 (stereo not drawn) [PH-189] | 0.056 to 0.11 µM (≈ 0.0304 to 0.0597 µg/mL) |  | 0.03 to 0.056 µM (≈ 0.0163 to 0.0304 µg/mL) | 0.057 to 0.12 µM | 0.03 µM (≈ 0.0163 µg/mL) |  |
| NNC(=O)c1ccncc1 [INH, Isoniazid, reference compound] |  | 0.15 µM (≈ 0.0206 µg/mL) |  |  |  |  |
| O=C(NCC(=O)N1CCN(c2ccc(N3CC(Cn4ccnn4)OC3=O)cc2F)CC1)c1cc([N+](=O)[O-])cc([N+](=O)[O-])c1 (stereo not drawn) [PH-193] | 0.42 µM (≈ 0.251 µg/mL) | 0.22 µM (≈ 0.131 µg/mL) | 0.052 µM (≈ 0.0311 µg/mL) |  |  |  |
| Cc1cn(CC2CN(c3ccc(N4CCN(C(=O)CNC(=O)c5ccc([N+](=O)[O-])o5)CC4)c(F)c3)C(=O)O2)nn1 (stereo not drawn) [PH-145] | 0.056 to 0.11 µM (≈ 0.0312 to 0.0612 µg/mL) | 0.11 to 0.46 µM (≈ 0.0612 to 0.256 µg/mL) | 0.03 to 0.056 µM (≈ 0.0167 to 0.0312 µg/mL) |  | 0.056 µM (≈ 0.0312 µg/mL) | 0.11 µM (≈ 0.0612 µg/mL) |
| CCOC(=O)CC(=O)NCC(=O)N1CCN(c2ccc(N3CC(Cn4ccnn4)OC3=O)cc2F)CC1 (stereo not drawn) [PH-169] | 1.45 to 2.9 µM (≈ 0.75 to 1.5 µg/mL) | 1.45 µM (≈ 0.75 µg/mL) | 1.45 µM (≈ 0.75 µg/mL) |  |  |  |
| NCC(=O)N1CCN(c2ccc(N3CC(Cn4ccnn4)OC3=O)cc2F)CC1 (stereo not drawn) [PH-172] | 7.2 µM (≈ 2.9 µg/mL) | 3.6 µM (≈ 1.45 µg/mL) | 3.6 µM (≈ 1.45 µg/mL) |  |  |  |
| Cc1cn(CC2CN(c3ccc(N4CCN(C(=O)CNC(=O)c5cccnc5)CC4)c(F)c3)C(=O)O2)nn1 (stereo not drawn) [PH-185] | 2.9 µM (≈ 1.52 µg/mL) | 5.7 µM (≈ 2.98 µg/mL) | 1.44 µM (≈ 0.752 µg/mL) |  |  |  |
